From patent US20220363727A1, “ANTIBACTERIAL PEPTIDE DERIVED FROM ERYTHROCULTER ILISHAEFORMIS AND USE THEREOF” (SOOCHOW UNIVERSITY, priority 2020, published 2022)
In brackets after ≈: the same amount, converted by molar mass. Read-outs that look alike come from different tables or passages of the source. Bridge positions count the residues as written; N and C are the ends. Ends that are not written are not given here.

Tests used:
Assay type in all cases: cell-based
[1] = test system: Aeromonas hydrophila; assay: microbe, parasite or virus in culture
Experimental: (§1) The antibacterial activity of LEAP-2 from Erythroculter ilishaeformis (having the amino acid sequence as shown in SEQ ID NO: 1) against fish pathogens was tested by a two-fold dilution method. […] Aeromonas sobria, Aeromonas hydrophila, Vibrio harveyi, Vibrio parahaemolyticus, Vibrio anguillarum, Vibrio vulnificus, Vibrio splendidus and Vibrio cholerae were cultured in a nutrient broth medium to the logarithmic phase, and then diluted with fresh nutrient broth medium to 10^5 CFU/mL. Then, 50 μL of diluted bacterial solution was added to each well of the 96-well plate containing the prepared two-fold dilution of LEAP-2 from Erythroculter ilishaeformis. After culturing at 37° C. for 18 hours, the minimal inhibitory concentration (MIC) was measured.

[2] = test system: Aeromonas sobria; assay: microbe, parasite or virus in culture
Experimental: as §1

[3] = test system: Vibrio anguillarum; assay: microbe, parasite or virus in culture
Experimental: as §1

[4] = test system: Vibrio harveyi; assay: microbe, parasite or virus in culture
Experimental: as §1

[5] = test system: Vibrio parahaemolyticus; assay: microbe, parasite or virus in culture
Experimental: as §1

[6] = test system: Vibrio splendidus; assay: microbe, parasite or virus in culture
Experimental: as §1

[7] = test system: Vibrio vulnificus; assay: microbe, parasite or virus in culture
Experimental: as §1

[8] = test system: Vibrio cholerae; assay: MIC by two-fold dilution method
Experimental: as §1

[9] = test system: Aeromonas hydrophila (penicillin-resistant strain); assay: Kinetic analysis of antibacterial action (CFU counts over time); conditions: for Number of bacteria co-cultured with sample: LEAP-2 5×MIC 93.75 μg/mL
Experimental: Aeromonas hydrophila (penicillin-resistant strain) was cultured to the logarithmic phase and diluted with fresh nutrient broth medium to 10^5 CFU/mL. […] At each time point, 50 μL of bacterial solution was taken and diluted 1000 times with nutrient broth medium. Then 50 μL of the dilution was spread on a nutrient broth agarose plate. After culturing at 37° C. for 12 hours, the CFU was calculated.

[10] = test system: V. harveyi; assay: Checkerboard test for synergy of LEAP-2 and ampicillin; conditions: Vibrio harveyi; for MIC used in combination: ampicillin and LEAP-2 used in combination
Experimental: (§2) 50 μL was added to each well, and uniformly mixed. […] 100 μL of bacterial solution was added to each well.

[11] = test system: V. parahaemolyticus; assay: as above; conditions: Vibrio parahaemolyticus; for MIC used in combination: ampicillin and LEAP-2 used in combination
Experimental: as §2

MTPLWRIMLLFKPHALCQNNYACSTGLCRYGHCSALQTILS (disulfide 17-28, 23-33) [LEAP-2]
MIC ([1]; 18 h): 18.75 µg/mL | MIC (molar, in brackets) ([1]; Aeromonas hydrophila, converted from μg/mL): (4.0 μM) | MIC ([2]; 18 h): 75 µg/mL | MIC (molar, in brackets) ([2]; Aeromonas sobria, converted from μg/mL): (16.1 μM) | MIC ([3]; 18 h): 150 µg/mL | MIC (molar, in brackets) ([3]; Vibrio anguillarum, converted from μg/mL): (32.2 μM) | MIC ([4]; 18 h): 75 µg/mL | MIC (molar, in brackets) ([4]; Vibrio harveyi, converted from μg/mL): (16.1 μM) | MIC ([5]; 18 h): 75 µg/mL | MIC (molar, in brackets) ([5]; Vibrio parahaemolyticus, converted from μg/mL): (16.1 μM) | MIC ([6]; 18 h): 150 µg/mL | MIC (molar, in brackets) ([6]; Vibrio splendidus, converted from μg/mL): (32.2 μM) | MIC ([7]; 18 h): 37.5 µg/mL | MIC (molar, in brackets) ([7]; Vibrio vulnificus, converted from μg/mL): (8.1 μM) | MIC (molar, in brackets) ([8]; converted from μg/mL): (8.1 μM) | Number of bacteria co-cultured with sample ([9]; 0 min, ampicillin 1 mg/mL): 65 ± 5.3 ×10^3, CFUs/mL | time to kill all bacteria ([9]; 5×MIC, i.e., 20.2 μM): ≤ 60 min | Number of bacteria co-cultured with sample ([9]; 10 min, ampicillin 1 mg/mL): 59 ± 7.4 ×10^3, CFUs/mL | Number of bacteria co-cultured with sample ([9]; 20 min, ampicillin 1 mg/mL): 40 ± 8.4 ×10^3, CFUs/mL | Number of bacteria co-cultured with sample ([9]; 30 min, ampicillin 1 mg/mL): 28 ± 5.9 ×10^3, CFUs/mL | Number of bacteria co-cultured with sample ([9]; 45 min, ampicillin 1 mg/mL): 11 ± 3.5 ×10^3, CFUs/mL | Number of bacteria co-cultured with sample ([9]; 60 min, ampicillin 1 mg/mL): 0 ×10^3, CFUs/mL | Number of bacteria co-cultured with sample ([9]; 90 min, ampicillin 1 mg/mL): 0 ×10^3, CFUs/mL | Number of bacteria co-cultured with sample ([9]; 120 min, ampicillin 1 mg/mL): 0 ×10^3, CFUs/mL | Number of bacteria co-cultured with sample ([9]; 180 min, ampicillin 1 mg/mL): 0 ×10^3, CFUs/mL | MIC used in combination [10]: 18.75 µg/mL | MIC used in combination [11]: 18.75 µg/mL

CC1(C)S[C@@H]2[C@H](NC(=O)[C@H](N)c3ccccc3)C(=O)N2[C@H]1C(=O)O [Ampicillin]
MIC ([1]; Aeromonas hydrophila, 37° C., 18 hours, average of three experiments): >200 µg/mL | MIC ([1]; Aeromonas hydrophila, 37° C., 18 hours, average of three experiments, read-out: MIC): > 200 µg/mL | MIC ([2]; Aeromonas sobria, 37° C., 18 hours, average of three experiments): >200 µg/mL | MIC ([2]; Aeromonas sobria, 37° C., 18 hours, average of three experiments, read-out: MIC): > 200 µg/mL | MIC ([3]; Vibrio anguillarum, 37° C., 18 hours, average of three experiments): >200 µg/mL | MIC ([3]; Vibrio anguillarum, 37° C., 18 hours, average of three experiments, read-out: MIC): > 200 µg/mL | MIC ([4]; Vibrio harveyi, 37° C., 18 hours, average of three experiments, read-out: MIC): 37.5 µg/mL (≈ 107 µM) | MIC ([5]; Vibrio parahaemolyticus, 37° C., 18 hours, average of three experiments, read-out: MIC): 18.8 µg/mL (≈ 53.7 µM) | MIC ([6]; Vibrio splendidus, 37° C., 18 hours, average of three experiments): >200 µg/mL | MIC ([6]; Vibrio splendidus, 37° C., 18 hours, average of three experiments, read-out: MIC): > 200 µg/mL | MIC ([7]; Vibrio vulnificus, 37° C., 18 hours, average of three experiments): >200 µg/mL | MIC ([7]; Vibrio vulnificus, 37° C., 18 hours, average of three experiments, read-out: MIC): > 200 µg/mL | MIC ([8]; 37° C., 18 hours, average of three experiments): >200 µg/mL | MIC ([8]; 18 h): > 200 µg/mL | Number of bacteria co-cultured with sample ([9]; 0 min, ampicillin 1 mg/mL): 67 ± 7.5 ×10^3, CFUs/mL | Number of bacteria co-cultured with sample ([9]; 10 min, ampicillin 1 mg/mL): 69 ± 8.1 ×10^3, CFUs/mL | Number of bacteria co-cultured with sample ([9]; 20 min, ampicillin 1 mg/mL): 70 ± 7.2 ×10^3, CFUs/mL | Number of bacteria co-cultured with sample ([9]; 30 min, ampicillin 1 mg/mL): 72 ± 6.9 ×10^3, CFUs/mL | Number of bacteria co-cultured with sample ([9]; 45 min, ampicillin 1 mg/mL): 85 ± 6.9 ×10^3, CFUs/mL | Number of bacteria co-cultured with sample ([9]; 90 min, ampicillin 1 mg/mL): 197 ± 12.6 ×10^3, CFUs/mL | Number of bacteria co-cultured with sample ([9]; 120 min, ampicillin 1 mg/mL): 378 ± 41.5 ×10^3, CFUs/mL | Number of bacteria co-cultured with sample ([9]; 180 min, ampicillin 1 mg/mL): 961 ± 87.3 ×10^3, CFUs/mL | CFU of Aeromonas hydrophila after 180 minutes of incubation ([9]; ampicillin 1 mg/mL, 2862.0 μM, 180 minutes): 9.6×10^5 CFUs/mL | CFU of Aeromonas hydrophila at start ([9]; ampicillin 1 mg/mL, 2862.0 μM, before incubation): 6.7×10^4 CFUs/mL | MIC ([10]; read-out: MIC used alone): 37.5 µg/mL | MIC used in combination [10]: 4.69 µg/mL | MIC ([11]; read-out: MIC used alone): 18.8 µg/mL | FIC ([11]; MIC in combination/MIC alone): 0.25 | MIC used in combination [11]: 4.69 µg/mL
